Here are results for 19 molecules from US7531540B2, “Phthalazinone-piperidino-derivatives as PDE4 inhibitors” (Nycomed GmbH, priority 2001, dated 2009).

One may read the melting point as the temperature, or range, at which the solid turns liquid.

SMILES strings stand for the structures. Structures can show the parent of a compound that is named as a salt.

One data set relates to PDE4. Briefly: Inhibition of PDE4 activity ([3H]cAMP hydrolysis, cytosol from human neutrophils). The class given is biochemical. The note with it: 0.5 μM cAMP, Motapizone (1 μM) included to suppress PDE3 activity, 15 min at 37° C. The protocol:
Method for Measuring Inhibition of PDE4 Activity
PDE4 activity was determined as described by Thompson et al. (Adv Cycl Nucl Res 10: 69-92, 1979) with some modifications (Bauer and Schwabe, Naunyn-Schmiedeberg's Arch Pharmacol 311: 193-198, 1980). At a final assay volume of 200 μl (96 well microtiter plates) the assay mixture contained 20 mM Tris (pH 7.4), 5 mM MgCl2, 0.5 μM cAMP, [^3H]cAMP (about 30,000 cpm/assay), the test compound and an aliquot of cytosol from human neutrophils which mainly contains PDE4 activity as described by Schudt et al. (Naunyn-Schmiedeberg's Arch Pharmacol 344: 682-690, 1991); the PDE3-specific inhibitor Motapizone (1 μM) was included to suppress PDE3 activity originating from contaminating platelets. Serial dilutions of the compounds were prepared in DMSO and further diluted 1:100 (v/v) in the assays to obtain the desired final concentrations of the inhibitors at a DMSO concentration of 1% (v/v) which by itself only slightly affected PDE4 activity.
After preincubation for 5 min at 37° C., the reaction was started by the addition of substrate (cAMP) and the assays were incubated for further 15 min at 37° C. 50 μl of 0.2 N HCl was added to stop the reaction and the assays were left on ice for about 10 min. Following incubation with 25 μg 5′-nucleotidase (Crotalus atrox snake venom) for 10 min at 37° C., the assays were loaded on QAE Sephadex A-25 (1 ml bed volume). The columns were eluted with 2 ml of 30 mM ammonium formiate (pH 6.0) and the eluate was counted for radioactivity. Results were corrected for blank values (measured in the presence of denatured protein) which were below 5% of total radioactivity. […] The IC50 -values for the compounds according to the invention for the inhibition of the PDE4 activity were determined from the concentration-inhibition curves by nonlinear-regression.
The inhibitory values determined for the compounds according to the invention follow from the following table A, in which the numbers of the compounds correspond to the numbers of the examples.
For the molecule `COc1ccc(C2=NN(C3CCN(c4ccc([N+](=O)[O-])cc4)CC3)C(=O)[C@@H]3CC=CC[C@H]23)cc1OC` [compound 11, (4aS,8aR)-4-(3,4-Dimethoxyphenyl)-2-[1-(4-nitro-phenyl)-piperidin-4-yl]-4a,5,8,8a-tetrahydro-2H-phthalazin-1-one], the “Inhibition of PDE4 acitivity [measured as -logIC50 (mol/l)]” value was 10.34. Turning to `COc1ccc(C2=NN(C3CCN(Cc4ccc(-c5csnn5)cc4)CC3)C(=O)[C@@H]3CC=CC[C@H]23)cc1OC.Cl.Cl` [compound 28, (4aS,8aR)-4-(3,4-Dimethoxyphenyl)-2-[1-(4-1,2,3-thiadiazol-4-yl-benzyl)-piperidin-4-yl]-4a,5,8,8a-tetrahydro-2H-phthalazin-1-one dihydrochloride], the “Inhibition of PDE4 acitivity [measured as -logIC50 (mol/l)]” value was 10.24. The same measure, in the same setting: in the case of `CCOc1ccc(C2=NN(C3CCN(C(=O)Nc4ccccc4)CC3)C(=O)[C@@H]3CC=CC[C@H]23)cc1OCC` [compound 7, 4-[(4aS,8aR)-4-(3,4-Diethoxyphenyl)-1-oxo-4a,5,8,8a-tetrahydro-1H-phthalazin-2-yl]-piperidine-1-carboxylic acid phenylamide] it was 10.28. `COc1ccc(C2=NN(C3CCN(CC(=O)N4CCOCC4)CC3)C(=O)[C@@H]3CC=CC[C@H]23)cc1OC.Cl` [compound 20, (4aS,8aR)-4-(3,4-Dimethoxyphenyl)-2-[1-(2-morpholin-4-yl-2-oxo-ethyl)-piperidin-4-yl]-4a,5,8,8a-tetrahydro-2H-phthalazin-1-one hydrochloride]: the “Inhibition of PDE4 acitivity [measured as -logIC50 (mol/l)]” value is given as 10.40. Still for that read-out and setting: in the case of `COc1ccc(C2=NN(C3CCN(C(=O)NC(C)(C)C)CC3)C(=O)[C@H]3CC=CC[C@@H]23)c2c1OC(C)(C)C2` (relative stereo) [compound 9, (cis)-4-[4-(7-Methoxy-2,2-dimethyl-2,3-dihydro-benzofuran-4-yl)-1-oxo-4a,5,8,8a-tetrahydro-1H-phthalazin-2-yl]-piperidine-1-carboxylic acid tert-butylamide] it was 10.65; in that of `CCOc1ccc(C2=NN(C3CCN(C(=O)CN4CCOCC4)CC3)C(=O)[C@@H]3CC=CC[C@H]23)cc1OCC.Cl` [compound 25, (4aS,8aR)-4-(3,4-Diethoxyphenyl)-2-[1-(2-morpholin-4-yl-ethanoyl)-piperidin-4yl]-4a,5,8,8a-tetrahydro-2H-phthalazin-1-one hydrochloride], 10.19.

In the case of `COc1ccc(C2=NN(C3CCN(CC(N)=O)CC3)C(=O)C3CC=CCC23)cc1OC` [compound 31, 2-{4-[(4aS,8aR)-4-(3,4-Dimethoxyphenyl)-1-oxo-4a,5,8,8a-tetrahydro-1H-phthalazin-2-yl]-piperidin-1-yl}-2H-acetamide hydrochloride], the “Inhibition of PDE4 acitivity [measured as -logIC50 (mol/l)]” value was found to be 9.20. Still for that read-out and setting: in the case of `COc1ccc(C2=NN(C3CCN(C(=O)NC(C)(C)C)CC3)C(=O)[C@@H]3CC=CC[C@H]23)cc1OC` [compound 8, 4-[(4aS,8aR)-4-(3,4-Dimethoxyphenyl)-1-oxo-4a,5,8,8a-tetrahydro-1H-phthalazin-2-yl]-piperidine-1-carboxylic acid tert-butylamide] it was 10.18. For `CCOc1ccc(C2=NN(C3CCN(C(=O)N4CCOCC4)CC3)C(=O)[C@@H]3CC=CC[C@H]23)cc1OCC` [compound 22, (4aS,8aR)-4-(3,4-Diethoxyphenyl)-2-[1-(morpholine-4-carbonyl)-piperidin-4-yl]-4a,5,8,8a-tetrahydro-2H-phthalazin-1-one], the “Inhibition of PDE4 acitivity [measured as -logIC50 (mol/l)]” value amounted to 9.37. `COc1ccc(C2=NN(C3CCN(c4ncccn4)CC3)C(=O)[C@@H]3CC=CC[C@H]23)cc1OC` [compound 17, (4aS,8aR)-4-(3,4-Dimethoxyphenyl)-2-(1-pyrimidin-2-yl-piperidin-4-yl)-4a,5,8,8a-tetrahydro-2H-phthalazin-1-one]: the “Inhibition of PDE4 acitivity [measured as -logIC50 (mol/l)]” value came out at 10.51.

Turning to `COc1ccc(C2=NN(C3CCN(S(=O)(=O)c4cccc5c(N(C)C)cccc45)CC3)C(=O)[C@@H]3CC=CC[C@H]23)cc1OC` [compound 10, (4aS,8aR)-4-(3,4-Dimethoxyphenyl)-2-[1-(5-dimethylamino-naphthalene-1-sulfonyl)-piperidin-4-yl]-4a,5,8,8a-tetrahydro-2H-phthalazin-1-one], the “Inhibition of PDE4 acitivity [measured as -logIC50 (mol/l)]” value was 9.57.

For the molecule `COc1ccc(C2=NN(C3CCN(CC(=O)NC(C)C)CC3)C(=O)C3CC=CCC23)cc1OC` [compound 27, 2-{4-[(4aS,8aR)-4-(3,4-Dimethoxyphenyl)-1-oxo-4a,5,8,8a-tetrahydro-1H-phthalazin-2-yl]-piperidin-1-yl}-2H-isopropyl-acetamide], the “Inhibition of PDE4 acitivity [measured as -logIC50 (mol/l)]” value came out at 10.37. On the same count and under the same terms, in the case of `COc1ccc(C2=NN(C3CCN(Cc4cccnc4)CC3)C(=O)[C@@H]3CC=CC[C@H]23)cc1OC.Cl.Cl` [compound 23, (4aS,8aR)-4-(3,4-Dimethoxyphenyl)-2-(1-pyridin-3-ylmethyl-piperidin-4-yl)-4a,5,8,8a-tetrahydro-2H-phthalazin-1-one dihydrochloride] it was 10.80; in that of `COc1ccc(C2=NN(C3CCN(CCc4ccccc4)CC3)C(=O)[C@@H]3CC=CC[C@H]23)cc1OC.Cl` [compound 21, (4aS,8aR)-4-(3,4-Dimethoxyphenyl)-2-(1-phenethyl-piperidin-4-yl)-4a,5,8,8a-tetrahydro-2H-phthalazin-1-one hydrochloride], 9.69; in that of `CCN1CCN(C(=O)N2CCC(N3N=C(c4ccc(OC)c(OC)c4)[C@H]4CC=CC[C@H]4C3=O)CC2)C(=O)C1=O` [compound 29, 1-(1-{4-[(4aS,8aR)-4-(3,4-Dimethoxyphenyl)-1-oxo-4a,5,8,8a-tetrahydro-1H-phthalazin-2-yl]-piperidin-1-yl}-methanoyl)-4-ethyl-piperazine-2,3-dione], 10.87.

Test system in the next data set: not given
Experiment: not given
Conditions: not given
For the molecule `CCOc1ccc(C2=NN(C3CCN(S(=O)(=O)c4ccc(C)cc4)CC3)C(=O)[C@@H]3CC=CC[C@H]23)cc1OCC` [compound 1, (4aS,8aR)-4-(3,4-Diethoxyphenyl)-2-[1-(toluene-4-sulfonyl)-piperidin-4-yl]-4a,5,8,8a-tetrahydro-2H-phthalazin-1-one], the melting point lay within 99 to 101 °C. `COc1ccc(C2=NN(C3CCN(c4ccc([N+](=O)[O-])cc4)CC3)C(=O)[C@@H]3CC=CC[C@H]23)cc1OC` [compound 11, (4aS,8aR)-4-(3,4-Dimethoxyphenyl)-2-[1-(4-nitro-phenyl)-piperidin-4-yl]-4a,5,8,8a-tetrahydro-2H-phthalazin-1-one] registered a melting point of 196 to 197 °C. `CCOc1ccc(C2=NN(C3CCN(C(=O)c4ccncc4)CC3)C(=O)[C@@H]3CC=CC[C@H]23)cc1OCC.Cl`: the melting point lay in the range of 66 to 68 °C. On the same count and under the same terms, in the case of `CCOc1ccc(C2=NN(C3CCN(C(=O)NC(C)(C)C)CC3)C(=O)[C@@H]3CC=CC[C@H]23)cc1OCC` [compound 6, 4-[(4aS,8aR)-4-(3,4-Diethoxyphenyl)-1-oxo-4a,5,8,8a-tetrahydro-1H-phthalazin-2-yl]-piperidine-1-carboxylic acid tert-butylamide] it was 145 to 148 °C; in that of `CCOc1ccc(C2=NN(C3CCN(C(=O)CCCC(=O)O)CC3)C(=O)[C@@H]3CC=CC[C@H]23)cc1OCC` [compound 4, 5-{4-[(4aS,8aR)-4-(3,4-Diethoxy-phenyl)-1-oxo-4a,5,8,8a-tetrahydro-1H-phthalazin-2-yl]-piperidin-1-yl}-5-oxo-pentanoic acid], 133 to 135 °C.
